{
  "source": "patent US20240327364A1",
  "about": "“THERAPEUTIC TARGETING OF GPR68 TO INDUCE FERROPTOSIS” (University Of Maryland, Baltimore, priority 2023, published 2024)",
  "key": {"DDR2": {"target": "T1, DDR2 (Homo sapiens, UniProt Q16832)", "T1 construct": "purchased DiscoveRx (Fremont, CA), KinomeScan service", "assay": "KinomeScan", "type": "binding", "conditions": "read-out: % Control"}, "DMPK2": {"target": "T2, DMPK2 (Homo sapiens, UniProt Q6DT37)", "T2 construct": "purchased DiscoveRx (Fremont, CA), KinomeScan service", "assay": "KinomeScan", "type": "binding", "conditions": "read-out: % Control"}, "P2Y1": {"target": "T3, P2Y1 (Homo sapiens, UniProt P47900)", "T3 construct": "host or cells: Chem-1 cells expressing Gα15", "assay": "GPCR Profiler", "type": "cell-based"}, "BIKE": {"target": "T4, BIKE (Homo sapiens, UniProt Q9NSY1)", "T4 construct": "purchased DiscoveRx (Fremont, CA)", "assay": "KinomeScan", "type": "binding", "conditions": "read-out: % Control"}, "JNK3": {"target": "T5, JNK3 (Homo sapiens, UniProt P53779)", "T5 construct": "purchased DiscoveRx", "assay": "KinomeScan", "type": "binding", "conditions": "read-out: % Control"}, "EGFR(E746-A750del)": {"target": "T6, EGFR(E746-A750del) (Homo sapiens, UniProt P00533, DEL746-750)", "T6 construct": "purchased DiscoveRx (Fremont, CA), KinomeScan service", "assay": "KinomeScan", "type": "binding", "conditions": "read-out: % Control"}, "NEK1": {"target": "T7, NEK1 (Homo sapiens, UniProt Q96PY6)", "T7 construct": "purchased DiscoveRx", "assay": "KinomeScan", "type": "binding", "conditions": "read-out: % Control"}, "GIP": {"target": "T8, GIP (Homo sapiens, UniProt P48546)", "T8 construct": "host or cells: Chem-1 cells expressing Gα15", "T8 sequence (P48546 22-466)": "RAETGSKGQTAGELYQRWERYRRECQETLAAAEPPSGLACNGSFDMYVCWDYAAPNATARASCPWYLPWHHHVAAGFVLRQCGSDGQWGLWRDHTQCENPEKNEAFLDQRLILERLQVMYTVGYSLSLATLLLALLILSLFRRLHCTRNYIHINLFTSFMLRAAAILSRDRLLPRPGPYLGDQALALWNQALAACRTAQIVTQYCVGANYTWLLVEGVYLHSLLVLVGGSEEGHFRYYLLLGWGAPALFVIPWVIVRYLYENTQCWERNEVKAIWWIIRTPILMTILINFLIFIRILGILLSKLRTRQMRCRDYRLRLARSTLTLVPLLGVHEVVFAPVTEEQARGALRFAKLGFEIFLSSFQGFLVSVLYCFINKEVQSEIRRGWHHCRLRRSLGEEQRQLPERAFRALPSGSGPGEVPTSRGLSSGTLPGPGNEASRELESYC", "assay": "GPCR Profiler", "type": "cell-based"}, "MYLK": {"target": "T9, MYLK (Homo sapiens, UniProt Q15746)", "T9 construct": "purchased DiscoveRx", "assay": "KinomeScan", "type": "binding", "conditions": "read-out: % Control"}, "EGFR(L747-T751del, Sins)": {"target": "T10, EGFR(L747-T751del, Sins) (Homo sapiens, UniProt P00533, DEL747-750/T751S)", "T10 construct": "purchased DiscoveRx (Fremont, CA), KinomeScan service", "assay": "KinomeScan", "type": "binding", "conditions": "read-out: % Control"}, "RIPK1": {"target": "T11, RIPK1 (Homo sapiens, UniProt Q13546)", "T11 construct": "purchased DiscoveRx (Fremont, CA)", "assay": "KinomeScan", "type": "binding", "conditions": "read-out: % Control"}, "ACVR2A": {"target": "T12, ACVR2A (Homo sapiens, UniProt P27037)", "T12 construct": "purchased DiscoveRx", "assay": "KinomeScan", "type": "binding", "conditions": "read-out: % Control"}, "[1]": {"target": "T13, TYK2(JH1domain-catalytic) (Homo sapiens, UniProt P29597)", "T13 construct": "TYK2(JH1domain-catalytic); purchased DiscoveRx", "assay": "KinomeScan", "type": "binding", "conditions": "read-out: % Control"}, "PDGFRA": {"target": "T14, PDGFRA (Homo sapiens, UniProt P16234)", "T14 construct": "purchased DiscoveRx (Fremont, CA)", "assay": "KinomeScan", "type": "binding", "conditions": "read-out: % Control"}, "PRKG1": {"target": "T15, PRKG1 (Homo sapiens, UniProt Q13976)", "T15 construct": "purchased DiscoveRx (Fremont, CA)", "assay": "KinomeScan", "type": "binding", "conditions": "read-out: % Control"}, "BRK": {"target": "T16, BRK (Homo sapiens, UniProt Q13882)", "T16 construct": "purchased DiscoveRx (Fremont, CA)", "assay": "KinomeScan", "type": "binding", "conditions": "read-out: % Control"}, "Ghrelin": {"target": "T17, Ghrelin (Homo sapiens, UniProt Q92847)", "T17 construct": "host or cells: Chem-1 cells expressing Gα15", "assay": "GPCR Profiler", "type": "cell-based"}, "PIPSK1C": {"target": "T18, PIPSK1C (Homo sapiens, UniProt O60331)", "T18 construct": "purchased DiscoveRx (Fremont, CA)", "assay": "KinomeScan", "type": "binding", "conditions": "read-out: % Control"}, "OPRM1": {"target": "T19, OPRM1 (Homo sapiens, UniProt P35372)", "T19 construct": "host or cells: Chem-1 cells expressing Gα15", "assay": "GPCR Profiler", "type": "cell-based"}, "BRAF": {"target": "T20, BRAF (Homo sapiens, UniProt P15056)", "T20 construct": "purchased DiscoveRx (Fremont, CA)", "assay": "KinomeScan", "type": "binding", "conditions": "read-out: % Control"}, "KIT(A829P)": {"target": "T21, KIT(A829P) (Homo sapiens, UniProt P10721, A829P)", "T21 construct": "purchased DiscoveRx", "assay": "KinomeScan", "type": "binding", "conditions": "read-out: % Control"}, "Lpa1": {"target": "Lpa1 (Homo sapiens, UniProt Q92633)", "assay": "Lpa1 activity of OGM analogs (Table 5)", "type": "cell-based", "description": "GPCR profiling assays were performed by Millipore (St. Louis, MO) using in cells expressing Gα15, a promiscuous G protein that enhances GPCR coupling to downstream Ca2+ signaling pathways. KinomeScan was conducted by DiscoveRx (Fremont, CA). Since GPCRs represent >30% of targets for FDA-approved small molecules and are known to modulate cell migration, activity against 158 GPCRs was assessed based on their chemical structures. GPCRs (158) were tested for agonist and antagonist activity at 10 μM. […] Chemical segregation analysis of zebrafish phenotype was conducted to further identify the inhibitory activity responsible for the zebrafish phenotype. […] The identities of the R groups in Formula A are shown below in Table 5."}, "EGFR": {"target": "T22, EGFR (Homo sapiens, UniProt P00533)", "T22 construct": "purchased DiscoveRx (Fremont, CA), KinomeScan service", "assay": "KinomeScan", "type": "binding", "conditions": "read-out: % Control"}, "mGlu1": {"target": "T23, mGlu1 (Homo sapiens, UniProt Q13255)", "T23 construct": "host or cells: Chem-1 cells expressing Gα15", "T23 sequence (Q13255 19-1194)": "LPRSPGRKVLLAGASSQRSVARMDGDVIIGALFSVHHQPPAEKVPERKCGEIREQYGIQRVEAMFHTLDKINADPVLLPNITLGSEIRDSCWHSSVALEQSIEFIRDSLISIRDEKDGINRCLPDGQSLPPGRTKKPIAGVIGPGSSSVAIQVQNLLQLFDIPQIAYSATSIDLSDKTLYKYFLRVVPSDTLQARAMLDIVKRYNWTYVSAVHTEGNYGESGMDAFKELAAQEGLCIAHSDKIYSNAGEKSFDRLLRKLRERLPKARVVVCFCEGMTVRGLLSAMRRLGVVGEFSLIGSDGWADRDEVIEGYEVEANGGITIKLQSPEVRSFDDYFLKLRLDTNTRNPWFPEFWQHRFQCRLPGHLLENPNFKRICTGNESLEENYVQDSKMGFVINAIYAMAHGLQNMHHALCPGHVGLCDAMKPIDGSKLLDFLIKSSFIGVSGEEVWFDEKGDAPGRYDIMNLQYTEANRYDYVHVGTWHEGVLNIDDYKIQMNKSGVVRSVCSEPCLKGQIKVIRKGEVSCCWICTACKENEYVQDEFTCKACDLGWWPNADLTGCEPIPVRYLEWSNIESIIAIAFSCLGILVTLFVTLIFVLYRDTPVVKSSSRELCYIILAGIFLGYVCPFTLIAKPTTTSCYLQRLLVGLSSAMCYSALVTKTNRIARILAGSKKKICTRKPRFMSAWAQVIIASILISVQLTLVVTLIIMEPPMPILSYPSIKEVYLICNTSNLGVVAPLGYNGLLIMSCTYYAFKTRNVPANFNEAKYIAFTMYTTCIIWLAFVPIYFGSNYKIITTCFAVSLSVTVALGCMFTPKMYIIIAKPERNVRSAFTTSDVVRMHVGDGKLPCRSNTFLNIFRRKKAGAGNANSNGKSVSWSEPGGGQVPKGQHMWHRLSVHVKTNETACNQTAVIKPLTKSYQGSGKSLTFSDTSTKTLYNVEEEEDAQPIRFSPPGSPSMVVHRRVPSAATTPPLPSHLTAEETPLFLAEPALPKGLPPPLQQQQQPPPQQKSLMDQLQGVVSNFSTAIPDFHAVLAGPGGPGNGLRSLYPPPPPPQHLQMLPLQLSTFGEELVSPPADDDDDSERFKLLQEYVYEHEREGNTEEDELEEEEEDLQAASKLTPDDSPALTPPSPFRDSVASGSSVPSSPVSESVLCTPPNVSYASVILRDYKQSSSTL", "assay": "GPCR Profiler", "type": "cell-based"}, "NK3": {"target": "T24, NK3 (Homo sapiens, UniProt P29371)", "T24 construct": "host or cells: Chem-1 cells expressing Gα15", "T24 sequence (P29371 whole entry)": "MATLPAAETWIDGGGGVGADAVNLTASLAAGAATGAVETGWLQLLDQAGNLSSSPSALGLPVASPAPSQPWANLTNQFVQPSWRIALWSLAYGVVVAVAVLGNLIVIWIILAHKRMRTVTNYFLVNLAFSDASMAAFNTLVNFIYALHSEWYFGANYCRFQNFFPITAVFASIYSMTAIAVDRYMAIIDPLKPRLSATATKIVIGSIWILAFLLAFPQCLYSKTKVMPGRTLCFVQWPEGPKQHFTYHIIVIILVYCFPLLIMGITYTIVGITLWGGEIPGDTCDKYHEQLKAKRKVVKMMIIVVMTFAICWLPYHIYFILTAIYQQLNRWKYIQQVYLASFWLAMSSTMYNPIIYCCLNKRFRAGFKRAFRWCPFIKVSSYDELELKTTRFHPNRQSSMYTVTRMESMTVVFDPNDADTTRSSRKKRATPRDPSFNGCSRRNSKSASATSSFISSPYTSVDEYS", "assay": "GPCR Profiler", "type": "cell-based"}, "CCR3": {"target": "T25, CCR3 (Homo sapiens, UniProt P51677)", "T25 construct": "host or cells: Chem-1 cells with Gα15", "T25 sequence (P51677 whole entry, species assumed)": "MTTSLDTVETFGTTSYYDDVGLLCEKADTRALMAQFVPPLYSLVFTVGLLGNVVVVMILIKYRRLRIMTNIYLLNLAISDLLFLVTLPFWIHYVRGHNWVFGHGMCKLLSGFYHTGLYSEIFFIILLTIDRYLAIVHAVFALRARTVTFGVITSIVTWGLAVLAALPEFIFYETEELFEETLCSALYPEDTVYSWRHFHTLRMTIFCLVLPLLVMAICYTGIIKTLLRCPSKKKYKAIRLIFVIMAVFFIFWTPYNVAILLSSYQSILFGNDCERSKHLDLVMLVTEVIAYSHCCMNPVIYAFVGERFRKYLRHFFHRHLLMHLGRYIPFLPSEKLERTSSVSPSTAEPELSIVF", "assay": "GPCR Profiler", "type": "cell-based"}, "P2Y12": {"target": "T26, P2Y12 (Homo sapiens, UniProt Q9H244)", "T26 construct": "host or cells: Chem-1 cells expressing Gα15", "T26 sequence (Q9H244 whole entry, species assumed)": "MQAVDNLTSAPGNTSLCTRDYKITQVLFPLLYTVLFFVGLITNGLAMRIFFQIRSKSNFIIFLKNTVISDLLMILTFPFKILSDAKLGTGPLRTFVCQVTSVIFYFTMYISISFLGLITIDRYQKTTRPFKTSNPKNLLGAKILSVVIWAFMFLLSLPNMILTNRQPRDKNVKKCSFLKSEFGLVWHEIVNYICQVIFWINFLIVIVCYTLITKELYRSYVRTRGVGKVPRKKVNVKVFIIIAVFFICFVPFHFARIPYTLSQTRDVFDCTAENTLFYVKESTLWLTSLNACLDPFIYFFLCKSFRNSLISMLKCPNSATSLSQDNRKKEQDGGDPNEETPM", "assay": "GPCR Profiler", "type": "cell-based"}, "BMPR1A": {"target": "T27, BMPR1A (Homo sapiens, UniProt P36894)", "T27 construct": "purchased DiscoveRx (Fremont, CA)", "T27 sequence (P36894 24-532)": "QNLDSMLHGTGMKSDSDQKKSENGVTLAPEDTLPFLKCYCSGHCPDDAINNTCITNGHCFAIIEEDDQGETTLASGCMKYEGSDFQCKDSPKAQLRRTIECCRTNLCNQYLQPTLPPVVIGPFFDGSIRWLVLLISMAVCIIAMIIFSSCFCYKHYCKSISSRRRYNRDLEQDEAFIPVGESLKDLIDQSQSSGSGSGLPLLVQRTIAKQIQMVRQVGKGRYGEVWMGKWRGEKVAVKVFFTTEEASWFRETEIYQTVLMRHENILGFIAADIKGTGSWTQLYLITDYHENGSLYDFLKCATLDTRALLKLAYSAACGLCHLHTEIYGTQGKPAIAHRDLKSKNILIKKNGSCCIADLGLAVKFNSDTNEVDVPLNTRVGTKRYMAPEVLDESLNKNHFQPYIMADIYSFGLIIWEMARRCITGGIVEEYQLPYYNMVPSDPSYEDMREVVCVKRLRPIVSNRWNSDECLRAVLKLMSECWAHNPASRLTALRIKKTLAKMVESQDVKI", "assay": "KinomeScan", "type": "binding", "conditions": "read-out: % Control"}, "SRPK3": {"target": "T28, SRPK3 (Homo sapiens, UniProt Q9UPE1)", "T28 construct": "purchased DiscoveRx (Fremont, CA)", "assay": "KinomeScan", "type": "binding", "conditions": "read-out: % Control"}, "ADRA1B": {"target": "T29, ADRA1B (Homo sapiens, UniProt P35368)", "T29 construct": "host or cells: Chem-1 cells with promiscuous Gα15", "T29 sequence (P35368 whole entry, species assumed)": "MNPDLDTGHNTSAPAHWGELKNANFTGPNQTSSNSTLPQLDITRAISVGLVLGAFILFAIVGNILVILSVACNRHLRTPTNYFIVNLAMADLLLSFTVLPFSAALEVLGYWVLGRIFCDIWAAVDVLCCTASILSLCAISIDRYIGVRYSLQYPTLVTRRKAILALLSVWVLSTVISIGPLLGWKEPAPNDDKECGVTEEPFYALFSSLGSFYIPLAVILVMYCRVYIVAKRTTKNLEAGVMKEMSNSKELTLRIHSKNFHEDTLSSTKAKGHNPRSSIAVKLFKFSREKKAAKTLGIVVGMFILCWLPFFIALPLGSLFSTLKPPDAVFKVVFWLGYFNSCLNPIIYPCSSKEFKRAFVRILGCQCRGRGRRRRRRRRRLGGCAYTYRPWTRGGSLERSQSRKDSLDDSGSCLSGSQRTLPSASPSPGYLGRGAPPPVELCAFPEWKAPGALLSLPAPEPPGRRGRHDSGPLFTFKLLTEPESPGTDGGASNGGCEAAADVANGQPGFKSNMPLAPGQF", "assay": "GPCR Profiler", "type": "cell-based"}, "MRGX2": {"target": "T30, MRGX2 (Homo sapiens, UniProt Q96LB1)", "T30 construct": "host or cells: Chem-1 cells expressing Gα15", "T30 sequence (Q96LB1 whole entry, species assumed)": "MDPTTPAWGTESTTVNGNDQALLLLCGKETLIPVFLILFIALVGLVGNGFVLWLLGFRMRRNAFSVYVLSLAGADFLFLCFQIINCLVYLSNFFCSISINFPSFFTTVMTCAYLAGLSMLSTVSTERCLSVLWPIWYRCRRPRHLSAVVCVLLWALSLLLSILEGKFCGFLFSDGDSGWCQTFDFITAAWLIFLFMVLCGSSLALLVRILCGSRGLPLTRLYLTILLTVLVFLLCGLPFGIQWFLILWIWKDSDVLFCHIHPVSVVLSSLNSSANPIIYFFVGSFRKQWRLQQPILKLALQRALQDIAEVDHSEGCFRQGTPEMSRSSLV", "assay": "GPCR Profiler", "type": "cell-based"}, "PAK6": {"target": "T31, PAK6 (Homo sapiens, UniProt Q9NQU5)", "T31 construct": "purchased DiscoveRx", "T31 sequence (Q9NQU5 whole entry)": "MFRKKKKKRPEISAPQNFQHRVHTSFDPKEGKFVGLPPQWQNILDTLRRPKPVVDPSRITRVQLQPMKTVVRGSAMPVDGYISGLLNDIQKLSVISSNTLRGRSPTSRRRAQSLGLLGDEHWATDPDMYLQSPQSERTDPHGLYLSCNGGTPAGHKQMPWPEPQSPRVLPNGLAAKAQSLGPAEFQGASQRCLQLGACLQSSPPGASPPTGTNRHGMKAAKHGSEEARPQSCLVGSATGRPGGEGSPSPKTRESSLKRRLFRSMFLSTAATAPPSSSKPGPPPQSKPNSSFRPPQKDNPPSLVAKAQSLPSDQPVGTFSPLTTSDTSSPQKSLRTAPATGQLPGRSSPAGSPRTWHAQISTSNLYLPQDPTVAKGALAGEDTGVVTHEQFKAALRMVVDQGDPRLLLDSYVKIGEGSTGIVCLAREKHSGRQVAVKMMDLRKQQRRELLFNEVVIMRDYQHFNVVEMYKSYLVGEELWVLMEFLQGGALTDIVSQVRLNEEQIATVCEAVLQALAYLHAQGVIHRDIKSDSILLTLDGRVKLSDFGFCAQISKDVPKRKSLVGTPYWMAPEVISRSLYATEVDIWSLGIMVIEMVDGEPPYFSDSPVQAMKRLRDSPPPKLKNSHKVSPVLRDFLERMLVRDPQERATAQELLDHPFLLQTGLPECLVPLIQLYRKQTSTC", "assay": "KinomeScan", "type": "binding", "conditions": "read-out: % Control"}, "EPHA2": {"target": "T32, EPHA2 (Homo sapiens, UniProt P29317)", "T32 construct": "purchased DiscoveRx (Fremont, CA)", "assay": "KinomeScan", "type": "binding", "conditions": "read-out: % Control"}},
  "data": [
    {"smiles": "CCc1ccc2c(c1)C1(NN=C(c3cccc4ccccc34)S1)C(=O)N2", "note": "(stereo not shown) [OGM1, 5-ethyl-5′-naphthalen-1-ylspiro[1H-indole-3,2′-3H-1,3,4-thiadiazole]-2-one]", "values": [
      {"measurement": "remaining binding at 10 µM", "setting": "DDR2", "result": 86, "unit": "%"},
      {"measurement": "remaining binding at 10 µM", "setting": "DMPK2", "result": 93, "unit": "%"},
      {"measurement": "Antagonism", "setting": "P2Y1; 10 uM", "result": "−6.3"},
      {"measurement": "Agonism", "setting": "P2Y1; 12.5 uM", "result": 1.7},
      {"measurement": "remaining binding at 10 µM", "setting": "BIKE", "result": 88, "unit": "%"},
      {"measurement": "remaining binding at 10 µM", "setting": "JNK3", "result": 82, "unit": "%"},
      {"measurement": "remaining binding at 10 µM", "setting": "EGFR(E746-A750del)", "result": 100, "unit": "%"},
      {"measurement": "remaining binding at 10 µM", "setting": "NEK1", "result": 83, "unit": "%"},
      {"measurement": "Antagonism", "setting": "GIP; 10 uM", "result": 0.2},
      {"measurement": "Agonism", "setting": "GIP; 12.5 uM", "result": 1.5},
      {"measurement": "remaining binding at 10 µM", "setting": "MYLK", "result": 91, "unit": "%"},
      {"measurement": "remaining binding at 10 µM", "setting": "EGFR(L747-T751del, Sins)", "result": 100, "unit": "%"},
      {"measurement": "remaining binding at 10 µM", "setting": "RIPK1", "result": 100, "unit": "%"},
      {"measurement": "remaining binding at 10 µM", "setting": "ACVR2A", "result": 100, "unit": "%"},
      {"measurement": "remaining binding at 10 µM", "setting": "[1]", "result": 77, "unit": "%"},
      {"measurement": "remaining binding at 10 µM", "setting": "PDGFRA", "result": 100, "unit": "%"},
      {"measurement": "remaining binding at 10 µM", "setting": "PRKG1", "result": 100, "unit": "%"},
      {"measurement": "remaining binding at 10 µM", "setting": "BRK", "result": 100, "unit": "%"},
      {"measurement": "Antagonism", "setting": "Ghrelin; 10 uM", "result": "−6.1"},
      {"measurement": "Agonism", "setting": "Ghrelin; 12.5 uM", "result": 0.3},
      {"measurement": "remaining binding at 10 µM", "setting": "PIPSK1C", "result": 97, "unit": "%"},
      {"measurement": "Antagonism", "setting": "OPRM1; 10 uM", "result": "−0.7"},
      {"measurement": "Agonism", "setting": "OPRM1; 12.5 uM", "result": "−0.7"},
      {"measurement": "remaining binding at 10 µM", "setting": "BRAF", "result": 96, "unit": "%"},
      {"measurement": "remaining binding at 10 µM", "setting": "KIT(A829P)", "result": 72, "unit": "%"},
      {"measurement": "IC50", "setting": "Lpa1", "result": 8.7, "unit": "µM"},
      {"measurement": "remaining binding at 10 µM", "setting": "EGFR", "result": 100, "unit": "%"},
      {"measurement": "Antagonism", "setting": "mGlu1; 10 uM", "result": "−12.7"},
      {"measurement": "Agonism", "setting": "mGlu1; 12.5 uM", "result": 1.1},
      {"measurement": "Antagonism", "setting": "NK3; 10 uM", "result": "−3"},
      {"measurement": "Agonism", "setting": "NK3; 12.5 uM", "result": 0.5},
      {"measurement": "Antagonism", "setting": "CCR3; 10 uM", "result": "−9.9"},
      {"measurement": "Agonism", "setting": "CCR3; 12.5 uM", "result": 0.8},
      {"measurement": "Antagonism", "setting": "P2Y12; 10 uM", "result": "−0.3"},
      {"measurement": "Agonism", "setting": "P2Y12; 12.5 uM", "result": 1},
      {"measurement": "remaining binding at 10 µM", "setting": "BMPR1A", "result": 100, "unit": "%"},
      {"measurement": "remaining binding at 10 µM", "setting": "SRPK3", "result": 100, "unit": "%"},
      {"measurement": "Antagonism", "setting": "ADRA1B; 10 uM", "result": 1},
      {"measurement": "Agonism", "setting": "ADRA1B; 12.5 uM", "result": 0.1},
      {"measurement": "Antagonism", "setting": "MRGX2; 10 uM", "result": 5.1},
      {"measurement": "Agonism", "setting": "MRGX2; 12.5 uM", "result": "−0.1"},
      {"measurement": "remaining binding at 10 µM", "setting": "PAK6", "result": 89, "unit": "%"},
      {"measurement": "remaining binding at 10 µM", "setting": "EPHA2", "result": 100, "unit": "%"}
    ]}
  ]
}
